Here are results for 2 molecules from patent US7846955B2, “Salt” (AstraZeneca AB, priority 2007, dated 2010).

Where a name gives a salt, the structure may show the parent alone.

Series [1] in a line: Evaluation of deaggregation properties of micronised material (Fine Particle Fraction). The series is classed as physicochemical. As to conditions: across relative humidity 0-75% RH. The text has this: ‘Salt Form A’ was Micronised in a 50 mm jet mill, with ejector pressure 5 bar and milling pressure 1.5-2 bar, giving (90% yield). Particle size of the micronised material as determined by Malvern Laser Diffraction with dry powder feeder was d(0.1) 0.77 μm: d(0.5), 1.45μ: d(0.9): 2.65 μm.

Series [2] can be described thus: Gravimetric vapour sorption (GVS) water uptake. The series is classed as physicochemical. As to conditions: at 80% RH (±0.3%), 25° C. The method, then:
• XRPD—PANalytical CubiX PRO machine in Ø-Ø configuration over the scan range 2° to 40° 2Ø with 100-second exposure per 0.02° increment. The X-rays were generated by a copper long-fine focus tube operated at 45 kV and 40 mA. The wavelength of the copper X-rays was 1.5418 Å. The Data was collected on zero background holders on which ˜2 mg of the compound was placed. The holder was made from a single crystal of silicon, which had been cut along a non-diffracting plane and then polished on an optically flat finish. The X-rays incident upon this surface were negated by Bragg extinction. • DSC thermograms were measured using a TA Q1000 Differential Scanning Calorimeter, with aluminium pans and pierced lids. The sample weights varied between 0.5 to 5 mg. The procedure was carried out under a flow of nitrogen gas (50 ml/min) and the temperature studied from 25 to 300° C. at a constant rate of temperature increase of 10° C. per minute. • TGA thermograms were measured using a TA Q500 Thermogravimetric Analyser, with platinum pans. The sample weights varied between 1 and 5 mg. The procedure was carried out under a flow of nitrogen gas (60 ml/min) and the temperature studied from 25 to 200° C. at a constant rate of temperature increase of 10° C. per minute. • GVS profiles were measured using a Dynamic Vapour Sorption DVS-1 instrument. […]

The target in series [3] is human muscarinic receptors (M3) (Homo sapiens, UniProt P20309). The experiment in a line: Muscarinic Receptor Radioligand Binding Assay (SPA, [3H]-NMS). The conditions noted are these: human M3 membranes on SPA beads, 16 hours incubation, read-out: M3 binding pIC50 (converted). The method, then:
The inhibitory effects of compounds of the napadisylate salt were determined by a Muscarinic Receptor Radioligand Binding Assay. Radioligand binding studies were carried out in Scintillation Proximity Assay (SPA) format utilising [3H]-N-methyl scopolamine ([3H]-NMS) and cell membranes expressing the human muscarinic receptors (M2 or M3) which were coated onto SPA beads. Coated SPA beads were incubated in 96-well plates in HEPES buffer with [3H]-NMS and M3 antagonist at various concentrations for 16 hours. Radioligand binding was then counted using a Wallac Microbeta scintillation counter.

Sequence of human muscarinic receptors (M3) (P20309 whole entry): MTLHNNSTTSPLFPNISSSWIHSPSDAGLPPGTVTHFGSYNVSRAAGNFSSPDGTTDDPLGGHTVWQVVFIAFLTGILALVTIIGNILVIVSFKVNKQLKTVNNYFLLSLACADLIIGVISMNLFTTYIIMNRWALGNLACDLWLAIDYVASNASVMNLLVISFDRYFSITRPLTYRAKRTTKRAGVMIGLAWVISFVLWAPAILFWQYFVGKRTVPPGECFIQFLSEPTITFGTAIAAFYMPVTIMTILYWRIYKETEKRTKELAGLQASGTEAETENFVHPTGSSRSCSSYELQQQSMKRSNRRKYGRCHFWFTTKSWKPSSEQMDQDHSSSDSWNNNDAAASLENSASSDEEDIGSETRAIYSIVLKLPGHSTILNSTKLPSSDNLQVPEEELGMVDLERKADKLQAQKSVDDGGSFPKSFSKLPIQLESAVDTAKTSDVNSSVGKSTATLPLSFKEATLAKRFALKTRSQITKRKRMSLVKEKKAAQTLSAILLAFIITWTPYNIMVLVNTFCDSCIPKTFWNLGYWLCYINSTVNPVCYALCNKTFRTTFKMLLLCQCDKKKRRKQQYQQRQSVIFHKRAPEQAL

`C[N+](C)(CCOCc1ccc(Cl)cc1)Cc1cnc([C@](O)(c2ccccc2)C2CCCCC2)o1` [Salt Form A, [2-(4-chloro-benzyloxy)-ethyl]-[2-((R)-cyclohexyl-hydroxy-phenyl-methyl)-oxazol-5-ylmethyl]-dimethyl-ammonium hemi-naphthalene-1,5-disulfonate]: the “Fine Particle Fraction (FPF)” value in series [1] is recorded as greater than 60%. In addition, the GVS weight increase entry in series [2] is given as “less than 0.5 % w/w”. `C[N+](C)(CCOCc1ccc(Cl)cc1)Cc1cnc([C@](O)(c2ccccc2)C2CCCCC2)o1` [[2-(4-chloro-benzyloxy)-ethyl]-[2-((R)-cyclohexyl-hydroxy-phenyl-methyl)-oxazol-5-ylmethyl]-dimethyl-ammonium]: in series [3], the IC50 is 0.158 nM.
